Assay results reported in PMC12888861, “Antibacterial activity of enmetazobactam against Acinetobacter spp.: a molecular dissection of mechanism of action and resistance determinants” (Antimicrobial Agents and Chemotherapy, 2025).

Test system: carbapenem-susceptible A. baumannii isolates (n = 54)
Experiment: MIC, broth microdilution (EUCAST), carbapenem-susceptible A. baumannii isolates
Format: cell-based, Acinetobacter baumannii
Settings: for MIC: in combinations ETZ fixed at 8 mg/L
Text: The bacterial strains used in this study comprised 208 clinical isolates from the Spanish National Acinetobacter spp. 2020 Multicenter Collection, which was previously characterized in detail by our research group, including whole-genome sequencing, phylogenetics studies, clonal dynamics, and resistance mechanisms ([2], [29]). Additionally, a collection of A. baumannii ATCC 17978 transformants coding the blaOXA-23, blaOXA-24/40, blaOXA-51, blaOXA-58, blaOXA-143, and blaOXA-201 genes, previously constructed and described by our group ([30]), was used to determine the activity of enmetazobactam against strains carrying the main CHDLs of A. baumannii.
The antimicrobial susceptibility of the 208 Acinetobacter spp. isolates was assessed using the broth microdilution method, as described in the European Committee on Antimicrobial Susceptibility Testing (EUCAST) v.15 guidelines (http://www.eucast.org/clinical_breakpoints). […] MICs for enmetazobactam alone were assessed as well. […] Subsequently, MIC testing was also conducted with a collection of A. baumannii ATCC 17978 transformants expressing clinically relevant OXA-like carbapenemase genes.
The A. baumannii ATCC 19606 strain was used as the reference strain in all susceptibility experiments, in duplicate assays. Antibiotics were purchased from Sigma-Aldrich, except enmetazobactam and durlobactam, which were obtained from Advanz Pharma and MedChemExpress, respectively.

[1] = Acinetobacter baumannii, carbapenem-susceptible A. baumannii isolates (n = 54), ETZ fixed 8 mg/L in combinations

C[C@@H](O)[C@H]1C(=O)N2C(C(=O)O)=C(SCCN=CN)C[C@H]12 [imipenem]
MIC distribution 0.12: 61.1 | MIC (Acinetobacter baumannii, isolate Ab1, ST 164, ADC-6, OXA-91): 0.12 µg/mL | MIC (Acinetobacter baumannii, isolate Ab11, ST 239, ADC-2, OXA-51): 0.12 µg/mL | MIC (Acinetobacter baumannii, isolate Ab34, ST 2182, ADC-2, OXA-130): 0.25 µg/mL | MIC (Acinetobacter baumannii, isolate Ab38, ST 866, ADC-2, OXA-385): 0.25 µg/mL | MIC (Acinetobacter baumannii, isolate Ab40, ST 2176, ADC-2, OXA-64): 0.25 µg/mL | MIC (Acinetobacter baumannii, isolate Ab50, ST 2176, ADC-2, OXA-64): 0.25 µg/mL | MIC (Acinetobacter baumannii, isolate Ab57, ST 1470, ADC-58, OXA-106): 0.25 µg/mL | MIC (Acinetobacter baumannii, isolate Ab58, ST 6, ADC-2, OXA-94): 0.25 µg/mL | MIC (Acinetobacter baumannii, isolate Ab61, ST 1639, ADC-7, OXA-64): 0.12 µg/mL | MIC (Acinetobacter baumannii, isolate Ab62, ST 265, ADC-2, OXA-91): 0.25 µg/mL | MIC (Acinetobacter baumannii, isolate Ab67, ST 1, ADC-11, OXA-69): 0.25 µg/mL | MIC (Acinetobacter baumannii, isolate Ab79, ST 106, ADC-11, OXA-78): 0.12 µg/mL | MIC (Acinetobacter baumannii, isolate Ab80, ST 2182, ADC-6, OXA-208): 0.12 µg/mL | MIC (Acinetobacter baumannii, isolate Ab81, ST 25, ADC-79, OXA-64): 0.12 µg/mL | MIC (Acinetobacter baumannii, isolate Ab93, ST 25, ADC-79, OXA-64): 0.12 µg/mL | MIC (Acinetobacter baumannii, isolate Ab95, ST 582, ADC-5, OXA-317): 0.12 µg/mL | MIC (Acinetobacter baumannii, isolate Ab96, ST 582, ADC-5, OXA-317): 0.12 µg/mL | MIC (Acinetobacter baumannii, isolate Ab100, ST 145, ADC-58, OXA-343): 0.12 µg/mL | MIC (Acinetobacter baumannii, isolate Ab110, ST 1623, ADC-3, OXA-70): 0.25 µg/mL | MIC (Acinetobacter baumannii, isolate Ab112, ST 193, ADC-like, OXA-120): 0.12 µg/mL | MIC (Acinetobacter baumannii, isolate Ab124, ST 2176, ADC-2, OXA-64): 0.12 µg/mL | MIC (Acinetobacter baumannii, isolate Ab127, ST 2176, ADC-2, OXA-64): 0.12 µg/mL | MIC (Acinetobacter baumannii, isolate Ab128, ST 2176, ADC-2, OXA-64): 0.12 µg/mL | MIC (Acinetobacter baumannii, isolate Ab130, ST 32, ADC-79, OXA-100): 0.12 µg/mL | MIC (Acinetobacter baumannii, isolate Ab131, ST 687, ADC-like, OXA-208): 0.12 µg/mL | MIC (Acinetobacter baumannii, isolate Ab132, ST 1112, ADC-79, OXA-89): 0.12 µg/mL | MIC (Acinetobacter baumannii, isolate Ab136, ST 2183, ADC-like, OXA-66): 0.12 µg/mL | MIC (Acinetobacter baumannii, isolate Ab139, ST 54, ADC-like, OXA-365): 0.25 µg/mL | MIC (Acinetobacter baumannii, isolate Ab142, ST 1, ADC-like, OXA-69): 1 µg/mL | MIC (Acinetobacter baumannii, isolate Ab143, ST 1328, ADC-76, OXA-408): 0.12 µg/mL | MIC (Acinetobacter baumannii, isolate Ab149, ST 1112, ADC-6, OXA-407): 0.25 µg/mL | MIC (Acinetobacter baumannii, isolate Ab150, ST 2184, ADC-like, OXA-64): 0.25 µg/mL | MIC (Acinetobacter baumannii, isolate Ab152, ST 132, ADC-2, OXA-120): 0.25 µg/mL | MIC (Acinetobacter baumannii, isolate Ab158, ST 2034, ADC-2, OXA-217): ≤ 0.06 µg/mL | MIC (Acinetobacter baumannii, isolate Ab163, ST 132, ADC-2, OXA-120): ≤ 0.06 µg/mL | MIC (Acinetobacter baumannii, isolate Ab167, ST 1623, ADC-like, OXA-345): 0.12 µg/mL | MIC (Acinetobacter baumannii, isolate Ab168, ST 1470, ADC-75, OXA-402): 0.25 µg/mL | MIC (Acinetobacter baumannii, isolate Ab170, ST 2110, ADC-4, OXA-338): 0.12 µg/mL | MIC (Acinetobacter baumannii, isolate Ab172, ST 2185, ADC-5, OXA-217): ≤ 0.06 µg/mL | MIC (Acinetobacter baumannii, isolate Ab185, ST 2, ADC-26, OXA-66): 0.25 µg/mL | MIC (Acinetobacter baumannii, isolate Ab187, ST 105, ADC-2, OXA-430): ≤ 0.06 µg/mL | MIC (Acinetobacter baumannii, isolate Ab188, ST 203, ADC-6, OXA-217, PDC-1): 0.12 µg/mL | MIC (Acinetobacter baumannii, isolate Ab189, ST 1405, ADC-3, OXA-120): ≤ 0.06 µg/mL | MIC (Acinetobacter baumannii, isolate Ab190, ST 2186, ADC-6, OXA-413): 0.25 µg/mL | MIC (Acinetobacter baumannii, isolate Ab193, ST 164, ADC-6, OXA-91): ≤ 0.06 µg/mL | MIC (Acinetobacter baumannii, isolate Ab195, ST 1, ADC-11, OXA-69): 0.12 µg/mL | MIC (Acinetobacter baumannii, isolate Ab200, ST 1336, ADC-2, OXA-51): 0.12 µg/mL | MIC (Acinetobacter baumannii, isolate Ab202, ST 1, ADC-11, OXA-69): 0.12 µg/mL | MIC (Acinetobacter baumannii, isolate Ab203, ST 221, ADC-6, OXA-88): 0.12 µg/mL | MIC (Acinetobacter baumannii, isolate Ab206, ST 2187, ADC-58, OXA-69): 0.25 µg/mL | MIC (Acinetobacter baumannii, isolate Ab209): 0.25 µg/mL | MIC (Acinetobacter baumannii, isolate Ab213): 0.12 µg/mL | MIC (Acinetobacter baumannii, isolate Ab218): 0.25 µg/mL | MIC (Acinetobacter baumannii, isolate Ab220): 0.25 µg/mL | MIC50 [1]: 0.12 µg/mL | MIC90 [1]: 0.25 µg/mL | MIC distribution 0.25 (cumulative share of carbapenem-susceptible A. baumannii isolates (n = 54) at MIC 0.25 mg/L, ETZ fixed 8 mg/L in combinations): 98.1 | MIC distribution 0.5 (cumulative share of carbapenem-susceptible A. baumannii isolates (n = 54) at MIC 0.5 mg/L, ETZ fixed 8 mg/L in combinations): 98.1 | MIC distribution 1 (cumulative share of carbapenem-susceptible A. baumannii isolates (n = 54) at MIC 1 mg/L, ETZ fixed 8 mg/L in combinations): 100 | MIC distribution 2 (cumulative share of carbapenem-susceptible A. baumannii isolates (n = 54) at MIC 2 mg/L, ETZ fixed 8 mg/L in combinations): 100 | MIC distribution 4 (cumulative share of carbapenem-susceptible A. baumannii isolates (n = 54) at MIC 4 mg/L, ETZ fixed 8 mg/L in combinations): 100 | MIC distribution 8 (cumulative share of carbapenem-susceptible A. baumannii isolates (n = 54) at MIC 8 mg/L, ETZ fixed 8 mg/L in combinations): 100 | MIC distribution 16 (cumulative share of carbapenem-susceptible A. baumannii isolates (n = 54) at MIC 16 mg/L, ETZ fixed 8 mg/L in combinations): 100 | MIC distribution ≤0.06 (cumulative share of carbapenem-susceptible A. baumannii isolates (n = 54) at MIC ≤0.06 mg/L, ETZ fixed 8 mg/L in combinations): 11.1 | MIC distribution ≥32 (cumulative share of carbapenem-susceptible A. baumannii isolates (n = 54) at MIC ≥32 mg/L, ETZ fixed 8 mg/L in combinations): 100
